Test results reported in ChEMBL document CHEMBL3244272, “Folate antagonists. 15. 2,3-Diamino-6-(2-naphthylsulfonyl)quinazoline and related 2,4-diamino-6-[(phenyl and naphthyl)sulfinyl and sulfonyl]quinazolines, a potent new class of antimetabolites with phenomenal antimalarial activity” (J Med Chem, 1979).
Converted amounts (≈) assume the structure as drawn. The source made the active and inactive calls. The rule behind the calls is not given here.

Legend:
[1] = system: Plasmodium gallinaceum; test: Antimalarial activity against trophozoite-induced Plasmodium gallinaceum infected in chick assessed as mean survival time at 5 mg/kg, sc single dose (reference value: 4 days); assay type: functional; conditions: route subcutaneous
[2] = system: Gallus gallus; test: Toxicity in trophozoite-induced Plasmodium gallinaceum infected in chick assessed as death at 10 mg/kg, sc single dose measured within 48 hrs; assay type: organism-based; set-up: dose 10 mg/kg, route subcutaneous; conditions: chicken, in vivo
[3] = system: Plasmodium gallinaceum; test: Antimalarial activity against trophozoite-induced Plasmodium gallinaceum infected in chick assessed as cured at 5 mg/kg, sc single dose; assay type: functional, organism-based; set-up: dose 5 mg/kg
[4] = system: Shigella sonnei; test: Antibacterial activity against Shigella sonnei C-10 assessed as growth inhibition; assay type: functional
[5] = system: Plasmodium berghei; test: Antimalarial activity against trophozoite-induced Plasmodium berghei infected in mouse assessed as change in mean survival time at 10 mg/kg, sc single dose after 72 hrs of infection; assay type: functional; conditions: route subcutaneous
[6] = system: Plasmodium berghei; test: Antimalarial activity against trophozoite-induced Plasmodium berghei infected in mouse assessed as change in mean survival time at 5 mg/kg, sc single dose after 72 hrs of infection; assay type: functional; conditions: route subcutaneous
[7] = system: Gallus gallus; test: Toxicity in trophozoite-induced Plasmodium gallinaceum infected in chick assessed as death at 40 mg/kg, sc single dose measured within 48 hrs; assay type: organism-based; set-up: dose 40 mg/kg, route subcutaneous; conditions: chicken, in vivo
[8] = system: Gallus gallus; test: Toxicity in trophozoite-induced Plasmodium gallinaceum infected in chick assessed as death at 20 mg/kg, sc single dose measured within 48 hrs; assay type: organism-based; set-up: dose 20 mg/kg, route subcutaneous; conditions: chicken, in vivo
[9] = system: Plasmodium gallinaceum; test: Antimalarial activity against trophozoite-induced Plasmodium gallinaceum infected in chick assessed as cured at 2.5 mg/kg, sc single dose; assay type: functional, organism-based; set-up: dose 2.5 mg/kg
[10] = system: Plasmodium berghei; test: Antimalarial activity against trophozoite-induced Plasmodium berghei infected in mouse assessed as change in mean survival time at 2.5 mg/kg, sc single dose after 72 hrs of infection; assay type: functional; conditions: route subcutaneous
[11] = system: Staphylococcus aureus; test: Antibacterial activity against Staphylococcus aureus UC-76 assessed as growth inhibition; assay type: functional
[12] = system: Plasmodium gallinaceum; test: Antimalarial activity against trophozoite-induced Plasmodium gallinaceum infected in chick assessed as mean survival time at 20 mg/kg, sc single dose (reference value: 4 days); assay type: functional; conditions: route subcutaneous
[13] = system: Pseudomonas aeruginosa; test: Antibacterial activity against Pseudomonas aeruginosa 28 assessed as growth inhibition; assay type: functional
[14] = system: Plasmodium gallinaceum; test: Antimalarial activity against trophozoite-induced Plasmodium gallinaceum infected in chick assessed as mean survival time at 10 mg/kg, sc single dose (reference value: 4 days); assay type: functional; conditions: route subcutaneous
[15] = system: Enterococcus faecalis; test: Antibacterial activity against Streptococcus faecalis MGH-2 assessed as growth inhibition; assay type: functional
[16] = system: Plasmodium berghei; test: Antimalarial activity against trophozoite-induced Plasmodium berghei infected in mouse assessed as change in mean survival time at 1.25 mg/kg, sc single dose after 72 hrs of infection; assay type: functional; conditions: route subcutaneous
[17] = system: Plasmodium berghei; test: Antimalarial activity against trophozoite-induced Plasmodium berghei infected in sc dosed mouse assessed as minimum curative dose; assay type: functional
[18] = system: Gallus gallus; test: Toxicity in trophozoite-induced Plasmodium gallinaceum infected in chick assessed as death at 5 mg/kg, sc single dose measured within 48 hrs; assay type: organism-based; set-up: dose 5 mg/kg, route subcutaneous; conditions: chicken, in vivo
[19] = system: Gallus gallus; test: Toxicity in trophozoite-induced Plasmodium gallinaceum infected in chick assessed as death at 160 mg/kg, sc single dose measured within 48 hrs; assay type: organism-based; set-up: dose 160 mg/kg, route subcutaneous; conditions: chicken, in vivo
[20] = system: Escherichia coli; test: Antibacterial activity against Escherichia coli Vogel assessed as growth inhibition; assay type: functional
[21] = system: Gallus gallus; test: Toxicity in trophozoite-induced Plasmodium gallinaceum infected in chick assessed as death at 2.5 mg/kg, sc single dose measured within 48 hrs; assay type: organism-based; set-up: dose 2.5 mg/kg, route subcutaneous; conditions: chicken, in vivo
[22] = system: Plasmodium gallinaceum; test: Antimalarial activity against trophozoite-induced Plasmodium gallinaceum infected in chick assessed as mean survival time at 40 mg/kg, sc single dose (reference value: 4 days); assay type: functional; conditions: route subcutaneous
[23] = system: Staphylococcus aureus; test: Antibacterial activity against Staphylococcus aureus S18713 assessed as growth inhibition; assay type: functional
[24] = system: Gallus gallus; test: Toxicity in trophozoite-induced Plasmodium gallinaceum infected in chick assessed as death at 80 mg/kg, sc single dose measured within 48 hrs; assay type: organism-based; set-up: dose 80 mg/kg, route subcutaneous; conditions: chicken, in vivo
[25] = system: Plasmodium gallinaceum; test: Antimalarial activity against trophozoite-induced Plasmodium gallinaceum infected in chick assessed as mean survival time at 2.5 mg/kg, sc single dose (reference value: 4 days); assay type: functional; conditions: route subcutaneous
[26] = system: Plasmodium gallinaceum; test: Antimalarial activity against trophozoite-induced Plasmodium gallinaceum infected in chick assessed as mean survival time at 1.25 mg/kg, sc single dose (reference value: 4 days); assay type: functional; conditions: route subcutaneous
[27] = system: Plasmodium gallinaceum; test: Antimalarial activity against trophozoite-induced Plasmodium gallinaceum infected in chick assessed as cured at 40 mg/kg, sc single dose; assay type: functional, organism-based; set-up: dose 40 mg/kg
[28] = system: Mycobacterium tuberculosis; test: Antibacterial activity against Mycobacterium tuberculosis H37Rv assessed as growth inhibition; assay type: functional
[29] = system: Plasmodium falciparum; test: Antimalarial activity against Plasmodium falciparum Vietnam Oak Knoll in po dosed Owl monkey assessed as curative dose compound treated for 7 days in presence of 5 mg/kg sulfadiazine for 7 days; assay type: functional
[30] = system: Plasmodium gallinaceum; test: Antimalarial activity against trophozoite-induced Plasmodium gallinaceum infected in chick assessed as cured at 20 mg/kg, sc single dose; assay type: functional, organism-based; set-up: dose 20 mg/kg
[31] = system: Plasmodium gallinaceum; test: Antimalarial activity against cycloguanil-resistant Plasmodium gallinaceum infected in mouse assessed as dose required to suppress parasitemia by 90% compound treated through gavage for 3 days; assay type: functional
[32] = system: Plasmodium falciparum; test: Antimalarial activity against chloroquine-sensitive, pyrimethamine-resistant Plasmodium falciparum Malayan Camp CH/Q infected in Aotus monkey assessed as dose required to >50% cures compound treated for 7 days; assay type: functional
[33] = system: Plasmodium falciparum; test: Antimalarial activity against Plasmodium falciparum Vietnam Oak Knoll in po once daily dosed Owl monkey assessed as curative dose compound treated for 7 days; assay type: functional
[34] = system: Plasmodium gallinaceum; test: Antimalarial activity against trophozoite-induced Plasmodium gallinaceum infected in chick assessed as cured at 10 mg/kg, sc single dose; assay type: functional, organism-based; set-up: dose 10 mg/kg
[35] = system: Plasmodium vivax; test: Antimalarial activity against Plasmodium vivax New Guinea Chesson in po once daily dosed Owl monkey assessed as curative dose compound treated for 7 days; assay type: functional
[36] = Antibacterial activity against Pediococcus cerevisiae assessed as growth inhibition; assay type: functional
[37] = system: Plasmodium falciparum; test: Antimalarial activity against Plasmodium falciparum Malayan Camp CH/Q infected in po dosed Owl monkey assessed as curative dose compound treated for 7 days in presence of 5 mg/kg sulfadiazine for 7 days; assay type: functional
[38] = system: Plasmodium falciparum; test: Antimalarial activity against Plasmodium falciparum Vietnam Smith in po dosed Owl monkey assessed as curative dose compound treated for 7 days in presence of 5 mg/kg sulfadiazine for 7 days; assay type: functional
[39] = system: Plasmodium falciparum; test: Antimalarial activity against Plasmodium falciparum Malayan Camp CH/Q infected in po once daily dosed Owl monkey assessed as curative dose compound treated for 7 days; assay type: functional
[40] = Inhibition of Plasmodium berghei dihydrofolate reductase
[41] = system: Plasmodium gallinaceum; test: Antimalarial activity against cycloguanil-resistant Plasmodium gallinaceum infected in mouse assessed as dose required to suppress parasitemia by 90% compound treated through gavage for 3 days relative to parent strain; assay type: functional
[42] = system: Plasmodium gallinaceum; test: Antimalarial activity against trophozoite-induced Plasmodium gallinaceum infected in chick assessed as cured at 1.25 mg/kg, sc single dose; assay type: functional, organism-based; set-up: dose 1.25 mg/kg
[43] = system: Enterococcus faecalis; test: Antibacterial activity against Streptococcus faecalis assessed as growth inhibition; assay type: functional, organism-based
[44] = system: Plasmodium vivax; test: Antimalarial activity against Plasmodium vivax VietnamPalo Alto in po once daily dosed Owl monkey assessed as curative dose compound treated for 7 days; assay type: functional
[45] = system: Plasmodium falciparum; test: Antimalarial activity against Plasmodium falciparum Vietnam Smith in po once daily dosed Owl monkey assessed as curative dose compound treated for 7 days; assay type: functional
[46] = system: Gallus gallus; test: Toxicity in trophozoite-induced Plasmodium gallinaceum infected in chick assessed as death at 1.25 mg/kg, sc single dose measured within 48 hrs; assay type: organism-based; set-up: dose 1.25 mg/kg, route subcutaneous; conditions: chicken, in vivo
[47] = system: Lacticaseibacillus casei; test: Antibacterial activity against Lactobacillus casei assessed as growth inhibition; assay type: functional, organism-based
[48] = system: Plasmodium vivax; test: Antimalarial activity against Plasmodium vivax VietnamPalo Alto in po dosed Owl monkey assessed as curative dose compound treated for 7 days in presence of 5 mg/kg sulfadiazine for 7 days; assay type: functional
[49] = system: Plasmodium falciparum; test: Antimalarial activity against chloroquine-resistant, pyrimethamine-sensitive Plasmodium falciparum Vietnam Oak Knoll in Aotus monkey assessed as dose required to >50% cures compound treated for 7 days; assay type: functional
[50] = system: Plasmodium berghei; test: Antimalarial activity against trophozoite-induced Plasmodium berghei infected in mouse assessed as change in mean survival time at 20 mg/kg, sc single dose after 72 hrs of infection; assay type: functional; conditions: route subcutaneous
[51] = system: Plasmodium gallinaceum; test: Antimalarial activity against trophozoite-induced Plasmodium gallinaceum infected in chick assessed as mean survival time at 160 mg/kg, sc single dose (reference value: 4 days); assay type: functional; conditions: route subcutaneous
[52] = system: Plasmodium gallinaceum; test: Antimalarial activity against trophozoite-induced Plasmodium gallinaceum infected in chick assessed as cured at 160 mg/kg, sc single dose; assay type: functional, organism-based; set-up: dose 160 mg/kg
[53] = system: Plasmodium berghei; test: Antimalarial activity against trophozoite-induced Plasmodium berghei infected in mouse assessed as change in mean survival time at 40 mg/kg, sc single dose after 72 hrs of infection; assay type: functional; conditions: route subcutaneous

Structure (SMILES): Nc1nc(N)c2cc([S+]([O-])c3ccc(Cl)cc3)ccc2n1 (centres undefined)
- MST [1]: 15.8 days
- Activity [2]: Toxic
- Activity [3]: Active
- MIC [4]: 20 µg/mL (≈ 62.7 µM)
- MST [5]: 7.3 days
- MST [6]: 4.8 days
- Activity [7]: Toxic
- Activity [8]: Toxic
- Activity [9]: Active
- MST [10]: 6 days
- MIC [11]: < 0.25 µg/mL
- MST [12]: 23 days
- MIC [13]: > 25 µg/mL
- MST [14]: 23 days
- MIC [15]: < 0.25 µg/mL
- MST [16]: 4.2 days
- MCD [17]: 40 mg/kg
- Activity [18]: Toxic
- Activity [19]: Toxic
- MIC [20]: 1.5 µg/mL (≈ 4.71 µM)
- Activity [21]: Toxic
- MST [22]: 27.5 days
- MIC [23]: < 0.25 µg/mL
- Activity [24]: Toxic
- MST [25]: 4 days

Structure (SMILES): Nc1nc(N)c2cc(S(=O)(=O)c3ccc4ccccc4c3)ccc2n1
- MST [1]: 11.8 days
- MST [26]: 6 days
- Activity [2]: Toxic
- Activity [27]: Active
- MIC [28]: > 25 µg/mL
- Activity [3]: Active
- MIC [4]: > 25 µg/mL
- MST [6]: 15.6 days
- Activity [7]: Toxic
- Activity [8]: Toxic
- Activity [9]: Active
- CD90 [29]: 0.00156 mg/kg
- MST [10]: 12.1 days
- Activity [30]: Active
- Activity [31]: 2.4 mg/kg
- Activity [32]: 0.39 mg/kg
- MIC [11]: 25 µg/mL (≈ 71.3 µM)
- CD90 [33]: 0.098 mg/kg
- MST [12]: 15 days
- Activity [34]: Active
- CD90 [35]: 0.39 mg/kg
- MIC [13]: > 25 µg/mL
- IC50 [36]: 0.00016 µg/mL (≈ 0.000457 µM)
- MST [14]: 13 days
- MIC [15]: > 25 µg/mL
- MST [16]: 10.9 days
- CD90 [37]: 0.025 mg/kg
- CD90 [38]: 0.39 mg/kg
- MCD [17]: 20 mg/kg
- Activity [18]: Toxic
- MIC [20]: > 25 µg/mL
- CD90 [39]: 0.39 mg/kg
- IC50 [40]: 2.4 nM
- fold change (FC) [41]: 0
- Activity [42]: Active
- Activity [21]: Toxic
- MST [22]: 20.4 days
- IC50 [43]: 0.007 ng/mL (≈ 2e-05 µM)
- MIC [23]: > 25 µg/mL
- CD90 [44]: 6.25 mg/kg
- CD90 [45]: >6.25 mg/kg
- Activity [46]: Toxic
- IC50 [47]: 0.00014 µg/mL (≈ 0.0004 µM)
- CD90 [48]: 0.098 mg/kg
- MST [25]: 8.8 days
- Activity [49]: 0.025 mg/kg

Structure (SMILES): COc1ccc(S(=O)(=O)c2ccc3nc(N)nc(N)c3c2)cc1
- MST [50]: 11.4 days
- MST [51]: 14.8 days
- MIC [4]: 2.5 µg/mL (≈ 7.57 µM)
- MST [5]: 4.9 days
- MIC [11]: 2.5 µg/mL (≈ 7.57 µM)
- MIC [13]: > 25 µg/mL
- Activity [52]: Active
- MIC [15]: < 0.25 µg/mL
- MCD [17]: 20 mg/kg
- Activity [19]: Toxic
- MIC [20]: 2.5 µg/mL (≈ 7.57 µM)
- MST [53]: 15.9 days
- MIC [23]: 2.5 µg/mL (≈ 7.57 µM)
